# From US20150250864A1, “ANTI-CANCER VACCINES” (Board of Regents, The University of Texas System, priority 2012, published 2015)
# “Also recorded” adds a separate entry of the source.
# Key:
# [1] = tested on: sera obtained from cancer patients; experiment: ELISA B cell epitope screening of 15-mer peptides with cancer patient sera; type: binding, human; conditions: single 15-mer peptides of SP8 or SP9
# Description: FIG. 7. Several novel epitopes were detected in BC patients by ELISA in SP8 and SP9, including 94, 108, 91, 88, 89, and 95 from pool 9.
# B cell epitopes have been screened by ELISA or flow cytometry using 4D1, 4E6, 4E11, 6H5, 6E11, 5F11mAbs or G11D10 or P 1/P2e (single chain antibodies generated from 6H5 (FIGS. 5-6), or the sera obtained from cancer patients (FIGS. 7-8). Several anti-HERV-K monoclonal antibodies were able to recognize some of these peptides.
# IVS cells = experiment: IFN-γ ELISPOT with IVS cells (DC pulsed once with HERV-K protein) against MAPs, 9-mer pools or single peptides; type: cell-based, human; conditions: donor 449731, IVS cells, FIG. 15C
# Description: FIGS. 15A-C. ELISPOT was employed to determine the production of IFN-γ in twelve 15-mer small pools. (FIG. 15A) Numbers of spots detected in multiple pools are shown for a breast cancer patient diagnosed with IDC (Acc 30) or a patient diagnosed with teratoma (Acc 32). (FIG. 15B) Numbers of spots detected in multiple pools are shown for a patient diagnosed with left breast minute foci of sugg papillary lesion (967092) or IDC (Acc 31). SP 1-12 represents small peptide pools #1-12. Pool 0 contains no peptides (as control). (FIG. 15C) T cells obtained from PBMC stimulated once with HERV-K-specific pulsed homologous B cells were reactive with individual MAPs, pools of 9-mer peptides, or single 9-mer peptides. NP: no peptide control.
# IVS were obtained from two donor pairs stimulated with DC pulsed once with HERV-K protein. After 7 days (1-week stimulation), IVS cells were used for ELISPOT with 15-mer peptides (FIGS. 15A-B) or MAPs including MAP73, MAP75-76, MAP82-93, MAP 92-93, and MAP95-96 or 9 mer peptide pools (#1 to 5, #5 to 10, #1 to 10, #12 to 17, #18 to 22) or single peptides (#3, #18, and #4.11; FIG. 15C). Candidate epitopes (#4 and #11) were further identified using IVS generated from DC obtained from cancer patients stimulated with HERV-K antigen in this study.
# T cells in PBMCs = experiment: IFN-γ release by ELISA from PBMC stimulated with peptides or protein; type: cell-based, human; conditions: stimulated PBMC, FIG. 21A
# Description: FIG. 17. T cell stimulation by HERV-K peptides. Peptides (p73-76 and p18-135) or HERV-K SU fusion proteins were used to stimulate PBMC and evaluated in vitro for their ability to stimulate T cells in PBMCs from healthy subjects (ND1007083; left) and/or cancer patients (BC 243; right), based on interferon-γ(IFN-γ) release by ELISA. KLH peptide and GST protein were used as controls. Other negative controls included media only, DMSO, and PBS.
# FIG. 18. T cell stimulation by HERV-K peptides. Peptides (p73-76: left; and p18-135: middle) or HERV-K SU fusion proteins (right) were used to stimulate PBMC and evaluated in vitro for their ability to stimulate T cells in PBMCs from healthy subjects and/or cancer patients (BC 243; middle), based on interferon-γ (IFN-γ) release by ELISA. OD values of interferon-γ (IFN-γ) release were compared between normal donors (ND447549, ND1001366, and ND1007083) and cancer patients (OC222, OC 210, OC212, and BC243). OC is ovarian cancer and BC is breast cancer
# FIGS. 21A-C. T Cell Stimulation. 9 mer Peptides (HERVK-3, HERVK-4, HERVK-11, and HERVK-18; see Table 1), p73-76 and p18-135 (Table 1 178 and 179), or HERV-K SU fusion proteins were used to stimulate PBMC and evaluated in vitro for their ability to stimulate T cells in PBMCs from healthy subjects and/or cancer patients, based on IFN-γ and Granzyme B release by ELISA. (FIG. 21A) OD values of IFN-γ release were compared in a normal donor (ND291812). (FIG. 21B) OD values of IFN-γ release were compared between a normal donor (ND291817) and an ovarian cancer patient (OC153). (FIG. 21C) OD values of Granzyme B release were compared between a normal donor (ND291817) and an ovarian cancer patient (OC153). Each dot represents an individual clone. Negative controls measured release of effector molecules from cancer cells after treatment with supernatants obtained from PBMCs without stimulation with HERV-K peptides or protein; positive controls were stimulated with PMA/ONO.
# Cancer patients were enrolled to evaluate HERV-K as a tumor associated antigen target. Patients provided written informed consent as part of an approved protocol (LAB04-0083) at MD Anderson Cancer Center prior to commencing the studies. Normal healthy donor control blood samples were obtained from Gulf Coast Regional Blood Center, Houston Tex. 40 mL of peripheral blood was obtained from each patient, and peripheral blood mononuclear cells (PBMCs) were isolated by density gradient centrifugation using Histopaque-1077 (Sigma-Aldrich; USA). HLA-A*02 expression in PBMCs obtained from cancer patients and healthy subjects was determined by flow cytometry with PE Mouse anti-human HLA-A2 mAb BB7.2 (BD Pharmingen; San Diego, Calif., USA). Mouse IgG2b was used as an isotype control. PBMCs (5×10^5 cells/well) from either healthy subjects or cancer patients were incubated with Peptide #18-135 ([…]; SEQ ID NO: 178), Peptide #73-76 ([…]; SEQ ID NO: 179) or KLH as control peptide) or proteins (HERV-K env SU protein or GST protein as control) at concentrations of 40 μg/mL in 96-well U-bottom microplates (BD; Franklin Lakes, N.J., USA) in 100 μL of T-cell medium (TCM), consisting of RPMI 1640 (Mediatech; Manassas, Va., USA), 10% human AB serum (Valley Biomedical, Winchester, USA), […] 2-mercaptoethanol, 100 IU/mL interleukin-2 (IL-2), and 0.1 mM MEM nonessential amino acid solution (Invitrogen; Grand Island, N.Y., USA). Half of the TCM was removed and replaced with fresh TCM containing peptides (20 μg/mL) on day 7. After 14 days of culture, the supernatants from cell culture media (PBMC pulsed with peptides or proteins) were harvested and tested for their ability to produce IFN-gamma or IL-2, and granzyme B release was also determined by enzyme-linked immunosorbent assay (ELISA) assay. In order to detect the secreted cytokine in this assay, high-binding plates were coated with 5 μg/ml anti-IFN-γ (Mabtech, Stockholm, Sweden) diluted in PBS buffer at 4° C. overnight. […]
# [2] = tested on: TIL obtained from melanoma patient; experiment: IFN-γ ELISPOT with TIL from melanoma patient; type: cell-based, human
# [3] = tested on: T cells from HLA A2+ normal donor; experiment: IFN-γ ELISPOT, T cells stimulated by 9-mer peptide pool-pulsed homologous B cells; type: cell-based, human; conditions: T cell stimulated 3 times with peptide pool #12 to 22
# Description: FIGS. 12A-B. Identification of HLA-A2 T-cell specific peptides using anti-human IFN-γ ELISPOT with T cells from one HLA A2^+ normal donor. (FIG. 12A) T cells, stimulated by peptide pool-pulsed homologous B cells three (3rd T cells) or four (4th T cells) times were reactive with two pools from a HERV-K HLA A2^+9-mer peptide library (pool #1-11 and pool #12-22). NP is no peptide control. (FIG. 12B) Photographs of actual plates for FIG. 12A.
# FIGS. 13A-B. Identification of HLA-A2 T cell specific epitopes using anti-human IFN-γ ELISPOT. T cells obtained from PBMC stimulated by peptide pool-pulsed homologous B cells three (3rd T cells) or four (4th T cells) times, were reactive with individual peptides. (FIG. 13A) Image of ELISPOT. (FIG. 13B) The code of peptides evaluated in ELISPOT assays.
# FIGS. 14A-C. Summary of number of ELISPOTs from each individual peptide. Numbers of spots detected (pool 1-11, pool 12-22, and pool 23-33) in ELISPOTS with a single peptide are shown. NP contains no peptide (as control). (FIG. 14A) Summary of number of ELISPOTs from each individual peptide including #1, #2, #3, #5, #6, #7, #8, and #9, and peptide pool #1 to #11. (FIG. 14B) Summary of number of ELISPOTs from each individual peptide including #12, #13, #14, #15, #17, #18, #19, #20, #22 and peptide pool #12 to #22. (FIG. 14C) Summary of number of ELISPOTs from each individual peptide including #23, #24, #25, #26, #27, #28, #30, #31, #32, #33, and peptide pool #23 to #33. 4th T cells indicated the T cells had been stimulated with peptide pool 4 times and 3rd T cells indicated the T cells had been stimulated with peptide pool 3 times.
# The inventor used epitope mapping to identify responses to HERV-K peptides in breast cancer patients. They chemically synthesized a HERV-K env nine amino acid (9mer) peptide library (33 HLA A2 restricted peptides) and overlapping 15mer peptide library (144 peptides). Preliminary research has identified two pools from the HERV-K env 9mer peptide library that contain potential CD8+ epitopes, using interferon gamma (IFN-γ) enzyme-linked immunosorbent spot (ELISPOT) assay with T cells from one HLA A2^+ normal donor which was stimulated with the 9mer peptide pool-pulsed homologous dendritic cells (DCs).
# HLA-2+ patients were identified by flow cytometry using anti-A2 antibody. Activated B cells were cultured from PBMCs stimulated with irradiated 3T3-CD40L-expressing fibroblasts. Normal donor CD8+ T-cell lines were obtained from PBMCs stimulated with autologous activated B cells pulsed with peptide pools (peptides are in 3 pools: #1-11, #12-22, and #23-33); the stimulation was repeated for 3-4 cycles. HERV-K specific T cells generated from normal donor lines were tested for peptide reactivity using IFN-γ ELISPOT assays (FIGS. 12A-B).
sequence,measurement,setting,value
AAVAGVALHSSVQSV [15-mer 94],B epitope found by ELISA using patient sera,[1],epitopes were found
AVIMGLIAVTATAAV [15-mer 91],B epitope found by ELISA using patient sera,[1],epitopes were found
GVALHSSVQSVNFVN [15-mer 95],B epitope found by ELISA using patient sera,[1],epitopes were found
ILVCLFCLL [HERVK-11],HERV-K specific T cell epitope (IFN-γ ELISPOT),IVS cells,HERV-K specific T cell epitopes
same,IFN-γ release (OD values),T cells in PBMCs,Higher IFN-γ release
KRFIFTLIAVIMGLI [15-mer 89],B epitope found by ELISA using patient sera,[1],epitopes were found
LILVCLFCL [HERVK-4],HERV-K specific T cell epitope (IFN-γ ELISPOT),IVS cells,HERV-K specific T cell epitopes
same,IFN-γ release (OD values),T cells in PBMCs,Higher IFN-γ release
LMSLEHRFQLQCDWN [15-mer 108],B epitope found by ELISA using patient sera,[1],epitopes were found; also recorded: the only active epitope in each patient's serum
LNRSKRFIFTLIAVI [15-mer 88],B epitope found by ELISA using patient sera,[1],epitopes were found
SQTITCENCRLLSCI [15-mer 73],recognition by TILs (IFN-γ ELISPOT),[2]; TIL from a melanoma patient,the single peptide in SP7 which was recognized by TILs
same,number of IFN-γ spots,"[2]; TIL from melanoma patient specimens, FIG. 16A",large number of spots
TLIAVIMGL [HERVK-15],IFN-γ ELISPOT spots with individual peptide,[3],numerous spots
